Positions of bridges follow the written chain, without caps; N, C: chain ends. Residues, ends and D or L forms follow the SMILES beside them.
Assay: Membrane partitioning of toxins into lipid vesicles measured using Trp fluorescence
Assay type: physicochemical
Settings: Trp fluorescence, excitation 280 nm, F/F0 at 320 nm; LUVs 1:1 POPC:POPG extruded through 100 nm; toxin 2 or 5 µM in 10 mM HEPES, 1 mM EDTA, pH 7.0; available lipid 60% of total; fit of partition function; ± SEM, n = 3 or 4; SEM
Description: Motivated by the amphipathic character evident in the structure of DkTx, together with the placement of the toxin at the protein-lipid interface when bound to TRPV1, we investigated the interaction of DkTx and each of its two lobes with lipid membranes. For these experiments, we took advantage of the presence of a single conserved and solvent accessible Trp residue in loop 2 of both K1 and K2 (Figure 1C,D; W11 and W53), and used Trp fluorescence to monitor the partitioning of the toxin from the aqueous solution into the membrane environment ([Gupta et al., 2015]; [Ladokhin et al., 2000]; [Milescu et al., 2007]). When aqueous solutions of DkTx were excited at a wavelength of 280 nm, emission spectra with maxima at 353 nm were obtained (Figure 5A, left), as expected for Trp residues residing in such an environment. […] To quantify the extent of partitioning as a function of lipid concentration, we measured the relative fluorescence intensity in a blue-shifted region of the spectra (e.g. 320 nm) as a function of lipid concentration, and fit a partition function to the data to obtain a mole-fraction partition coefficient (Kx) of (2.3 ± 0.7) × 10^6, indicating an energetically favorable interaction of DkTx with lipid membranes (Figure 5A, right). This strong interaction of DkTx with membranes would facilitate binding of the toxin to the channel by increasing the local concentration of the toxin near the channel and by a reduction in the dimensionality of diffusion within the membrane ([Axelrod and Wang, 1994]).
Figure 5. Interaction of DkTx and toxin constructs with lipid membranes measured using Trp fluorescence. (A–E, left panel) Trp emission spectra of DkTx (A), K1 without linker (B), K2 (C), bivalent K1 (K1K1) (D) and bivalent K2 (K2K2) (E) in the absence (black) and presence (blue, 1.6 mM for DkTx, 2 mM for K1-ΔL and K1K1, and 3 mM for K2 and K2K2) of lipid vesicles (1:1 mix of POPC:POPG). (A–E, right panel) Relative fluorescence intensity at 320 nm (F/F0) as a function of available lipid concentrations (60% of total lipid concentration). Smooth curves correspond to partition functions with Kx = (2.3 ± 0.7) × 10^6 and F/F0^max = 2.65 ± 0.08 for DkTx, Kx = (3.9 ± 1.1) × 10^5 and F/F0^max = 2.63 ± 0.07 for K1-ΔL, Kx = (2.0 ± 0.3) × 10^4 and F/F0^max = 3.71 ± 0.40 for K2, Kx = (2.9 ± 0.3) × 10^6 and F/F0^max = 2.47 ± 0.03 for K1K1 and Kx = (8.1 ± 2) × 10^5 and F/F0^max = 2.77 ± 0.55 for K2K2. Error bars correspond to SEM (n = 3 or 4). Partition functions for K1-ΔL and K2 are shown as dotted lines for comparison in D and E, respectively. (F) Comparisons of mole-fraction partition coefficient (Kx) of toxins. 7G-DkTx denotes a construct of DkTx whose linker (PYVPVTT) is replaced with 7 Gly residues. Error bars correspond to SEM (n = 3 or 4). DOI: http://dx.doi.org/10.7554/eLife.11273.020 Figure 5—figure supplement 1. Interaction of K1-K2 chimeras with lipid membranes measured using Trp fluorescence. (A–E, left panel) Trp emission spectra of K1(D1N) (A), K1(K2L2) (B), K1(K2L3) (C), K1(K2L4) (D) and K1(K2CT) (E) in the absence (black) and presence (blue, 2 mM) of lipid vesicles (1:1 mix of POPC:POPG). (A–D, right panel) Relative fluorescence intensity at 320 nm (F/F0) as a function of available lipid concentrations (60% of total lipid concentration). Smooth curves correspond to partition functions with Kx = (1.76 ± 0.06) × 10^6 and F/F0^max = 3.79 ± 0.02 for K1(D1N), Kx = (4.77 ± 1.39) × 10^5 and F/F0^max = 1.31 ± 0.02 for K1(K2L2), Kx = (1.02 ± 0.04) × 10^4 and F/F0^max = 3.69 ± 0.02 for K1(K2L3), and Kx = (0.90 ± 0.04) × 10^6 and F/F0^max = 2.59 ± 0.02 for K1(K2L4). Error bar corresponds to SEM (n = 3 or 4). Smooth curve of K1-ΔL was shown as a dotted line for comparison throughout the figures. (F) Comparisons of mole-fraction partition coefficient (Kx) of toxins. Error bars correspond to SEM (n = 3 or 4). DOI: http://dx.doi.org/10.7554/eLife.11273.021 [drawing 10] […]

| Structure (SMILES) | mole-fraction partition coefficient (Kx) |
| --- | --- |
| CC[C@H](C)[C@@H]1NC(=O)[C@H](Cc2ccccc2)NC(=O)[C@H](C)NC(=O)[C@H](CC(C)C)NC(=O)[C@@H]2CCCN2C(=O)[C@@H]2CSSC[C@@H]3NC(=O)[C@H](C(C)C)NC(=O)[C@H](CCC(=O)O)NC(=O)CNC(=O)[C@H](CCC(=O)O)NC(=O)[C@H](CCCCN)NC(=O)[C@H](C)NC(=O)[C@@H](NC(=O)[C@@H](N)CC(=O)O)CSSC[C@H](NC(=O)[C@H](CSSC[C@@H](C(=O)N[C@@H](CCCCN)C(=O)N[C@@H](CCCCN)C(=O)N[C@@H](Cc4ccc(O)cc4)C(=O)N[C@@H](CCCCN)C(=O)O)NC(=O)[C@H](Cc4ccc(O)cc4)NC(=O)[C@@H]4CCCN4C1=O)NC(=O)[C@H](CCCCN)NC(=O)[C@H](CCCCN)NC(=O)CNC(=O)[C@H](Cc1c[nH]c4ccccc14)NC(=O)[C@H](CO)NC3=O)C(=O)N[C@@H](CC(=O)O)C(=O)N[C@@H](CC(C)C)C(=O)N[C@@H](CC(=O)O)C(=O)N[C@@H](CC(N)=O)C(=O)N[C@@H](Cc1ccccc1)C(=O)N[C@@H](Cc1ccc(O)cc1)C(=O)N2 [K1(K2L4)] (H-DCAKEGEVCSWGKKCCDLDNFYCPLAFIPYCKKYK-OH; disulfide 2-16, 9-23, 15-31) | (0.90 ± 0.04) × 10^6 |
| CC[C@H](C)[C@@H]1NC(=O)[C@H](Cc2ccccc2)NC(=O)[C@H](CCC(=O)O)NC(=O)[C@H](CCSC)NC(=O)[C@@H]2CCCN2C(=O)[C@@H]2CSSC[C@@H]3NC(=O)[C@H](C(C)C)NC(=O)[C@H](CCC(=O)O)NC(=O)CNC(=O)[C@H](CCC(=O)O)NC(=O)[C@H](CCCCN)NC(=O)[C@H](C)NC(=O)[C@@H](NC(=O)[C@@H](N)CC(=O)O)CSSC[C@H](NC(=O)[C@H](CSSC[C@@H](C(=O)N[C@@H](CCCCN)C(=O)N[C@@H](CCCCN)C(=O)N[C@@H](Cc4ccc(O)cc4)C(=O)N[C@@H](CCCCN)C(=O)O)NC(=O)[C@H](Cc4c[nH]cn4)NC(=O)[C@@H]4CCCN4C1=O)NC(=O)[C@H](CCCCN)NC(=O)[C@H](CCCCN)NC(=O)CNC(=O)[C@H](Cc1c[nH]c4ccccc14)NC(=O)[C@H](CO)NC3=O)C(=O)N[C@@H](Cc1c[nH]cn1)C(=O)NCC(=O)N[C@@H](CC(C)C)C(=O)N[C@@H](CC(=O)O)C(=O)N2 [K1(K2L3)] (H-DCAKEGEVCSWGKKCCHGLDCPMEFIPHCKKYK-OH; disulfide 2-16, 9-21, 15-29) | (1.02 ± 0.04) × 10^4 |
| CC[C@H](C)[C@@H]1NC(=O)[C@H](Cc2ccccc2)NC(=O)[C@H](CCC(=O)O)NC(=O)[C@H](CCSC)NC(=O)[C@@H]2CCCN2C(=O)[C@@H]2CSSC[C@@H]3NC(=O)[C@H](C(C)C)NC(=O)[C@H](CCC(=O)O)NC(=O)CNC(=O)[C@H](CCC(=O)O)NC(=O)[C@H](CCCCN)NC(=O)[C@H](C)NC(=O)[C@@H](NC(=O)[C@@H](N)CC(=O)O)CSSC[C@H](NC(=O)[C@H](CSSC[C@@H](C(=O)N[C@@H](CCCCN)C(=O)N[C@@H](CCCCN)C(=O)N[C@@H](Cc4ccc(O)cc4)C(=O)N[C@@H](CCCCN)C(=O)O)NC(=O)[C@H](Cc4c[nH]cn4)NC(=O)[C@@H]4CCCN4C1=O)NC(=O)[C@H](CCCCN)NC(=O)[C@H](CCCCN)NC(=O)CNC(=O)[C@H](Cc1c[nH]c4ccccc14)NC(=O)[C@H](CO)NC3=O)C(=O)N[C@@H](CC(=O)O)C(=O)N[C@@H](CC(C)C)C(=O)N[C@@H](CC(=O)O)C(=O)N[C@@H](CC(N)=O)C(=O)N[C@@H](Cc1ccccc1)C(=O)N[C@@H](Cc1ccc(O)cc1)C(=O)N2 [K1-ΔL] (H-DCAKEGEVCSWGKKCCDLDNFYCPMEFIPHCKKYK-OH; disulfide 2-16, 9-23, 15-31) | (3.9 ± 1.1) × 10^5 |
| CC[C@H](C)[C@@H]1NC(=O)[C@H](Cc2ccccc2)NC(=O)[C@H](CCC(=O)O)NC(=O)[C@H](CCSC)NC(=O)[C@@H]2CCCN2C(=O)[C@@H]2CSSC[C@@H]3NC(=O)[C@H](C(C)C)NC(=O)[C@H](CCC(=O)O)NC(=O)CNC(=O)[C@H](CCC(=O)O)NC(=O)[C@H](CCCCN)NC(=O)[C@H](C)NC(=O)[C@@H](NC(=O)[C@@H](N)CC(N)=O)CSSC[C@H](NC(=O)[C@H](CSSC[C@@H](C(=O)N[C@@H](CCCCN)C(=O)N[C@@H](CCCCN)C(=O)N[C@@H](Cc4ccc(O)cc4)C(=O)N[C@@H](CCCCN)C(=O)O)NC(=O)[C@H](Cc4c[nH]cn4)NC(=O)[C@@H]4CCCN4C1=O)NC(=O)[C@H](CCCCN)NC(=O)[C@H](CCCCN)NC(=O)CNC(=O)[C@H](Cc1c[nH]c4ccccc14)NC(=O)[C@H](CO)NC3=O)C(=O)N[C@@H](CC(=O)O)C(=O)N[C@@H](CC(C)C)C(=O)N[C@@H](CC(=O)O)C(=O)N[C@@H](CC(N)=O)C(=O)N[C@@H](Cc1ccccc1)C(=O)N[C@@H](Cc1ccc(O)cc1)C(=O)N2 [K1(D1N)] (H-NCAKEGEVCSWGKKCCDLDNFYCPMEFIPHCKKYK-OH; disulfide 2-16, 9-23, 15-31) | (1.76 ± 0.06) × 10^6 |
| CC[C@H](C)[C@@H]1NC(=O)[C@H](Cc2ccccc2)NC(=O)[C@H](CCC(=O)O)NC(=O)[C@H](CCSC)NC(=O)[C@@H]2CCCN2C(=O)[C@@H]2CSSC[C@@H]3NC(=O)[C@H](C(C)C)NC(=O)[C@H](CCC(=O)O)NC(=O)CNC(=O)[C@H](CCC(=O)O)NC(=O)[C@H](CCCCN)NC(=O)[C@H](C)NC(=O)[C@@H](NC(=O)[C@@H](N)CC(=O)O)CSSC[C@H](NC(=O)[C@H](CSSC[C@@H](C(=O)N[C@@H](CCCCN)C(=O)N[C@@H](CCCCN)C(=O)N[C@@H](Cc4ccc(O)cc4)C(=O)N[C@@H](CCCCN)C(=O)O)NC(=O)[C@H](Cc4c[nH]cn4)NC(=O)[C@@H]4CCCN4C1=O)NC(=O)[C@H](CCCCN)NC(=O)[C@H](CO)NC(=O)CNC(=O)[C@H](Cc1c[nH]c4ccccc14)NC(=O)CNC3=O)C(=O)N[C@@H](CC(=O)O)C(=O)N[C@@H](CC(C)C)C(=O)N[C@@H](CC(=O)O)C(=O)N[C@@H](CC(N)=O)C(=O)N[C@@H](Cc1ccccc1)C(=O)N[C@@H](Cc1ccc(O)cc1)C(=O)N2 [K1(K2L2)] (H-DCAKEGEVCGWGSKCCDLDNFYCPMEFIPHCKKYK-OH; disulfide 2-16, 9-23, 15-31) | (4.77 ± 1.39) × 10^5 |

— PMC4764579, “Structural insights into the mechanism of activation of the TRPV1 channel by a membrane-bound tarantula toxin” (eLife, 2016)
